Consider 5 molecules from patent US7589079B2, “Crystalline and amorphous forms of beta-L-2′-deoxythymidine” (Novartis AG, priority 2002, dated 2009).

The structures appear in SMILES notation. ≈ marks a conversion by molar mass, not a printed value. Marks after values point to notes of the source that are not given here.

A short description of data set [1]: Moisture sorption/desorption (VTI SGA-100 Vapor Sorption Analyzer). The data set is classed as physicochemical. Conditions: for Moisture balance: loss from 95-5% RH: desorption from 95% to 5% RH; for Moisture balance: weight loss at 5% RH: equilibration at 5% RH; for Moisture balance: weight gain at 95% RH: sorption up to 95% RH; for Weight lost upon lowering the relative humidity (in words): lowering relative humidity from 95% RH to 5% RH. The method, then:
Moisture sorption/desorption data were collected on a VTI SGA-100 Vapor Sorption Analyzer. Sorption and desorption data were collected over a range of 5% to 95% relative humidity (RH) at 10% RH intervals under a nitrogen purge. Samples were not dried prior to analysis. Equilibrium criteria used for analysis were less than 0.0100% weight change in 5 minutes, with a maximum equilibration time of 3 hours if the weight criterion was not met. Data were not corrected for the initial moisture content of the samples. NaCl and PVP were used as calibration standards.

Data set [2] is described as follows: Approximate solubilities in various solvents at ambient temperature (crystallization screen). The data set is classed as physicochemical. The method, then: A weighed sample of L-dT (usually 20-30 mg) was treated with aliquots of the test solvent. Solvents were either reagent or HPLC grade. The aliquots were usually 100 μL or 500 μL. Between additions the mixture was sonicated. When the solids dissolved, as judged by visual inspection, the solution was filtered, then left in an open vial under ambient conditions (fast evaporation). The procedure was repeated, and the resulting solution was left under ambient conditions in a vial with aluminum foil containing pinholes (slow evaporation). Samples were also generated by filtering a warm solution of L-dT into a cold antisolvent (cold precipitation).
Solubilities were estimated from these experiments based on the total solvent used to give a solution. Note that actual solubilities may be greater than those calculated because of the use of too-large solvent aliquots or a slow rate of dissolution.
Approximate solubilities of L-dT in various solvents at ambient temperature were determined during the crystalline screen, and are summarized in Table 1.

[3] abbreviates: solvent 1,1,1,3,3,3-hexafluoroisopropanol.
The mark [4] stands for this setting: solvent N,N-dimethylformamide (DMF).
The mark [5] stands for this setting: solvent ethanol (EtOH), after 2 hours, all solid was dissolved.

Regarding `Cc1cn([C@@H]2C[C@@H](O)[C@H](CO)O2)c(=O)[nH]c1=O` [Lot No. 2, beta-L-2′-deoxythymidine], in data set [1] (listed as 2), the “Moisture balance: loss from 95-5% RH” value worked out at 2.7% loss from 95-5% RH, the “Moisture balance: weight loss at 5% RH” value was −0.4% weight loss at 5% RH and the “Moisture balance: weight gain at 95% RH” value is 2.8% weight gain at 95% RH.

On to `Cc1cn([C@@H]2C[C@@H](O)[C@H](CO)O2)c(=O)[nH]c1=O` [crystalline L-dT, beta-L-2′-deoxythymidine], for which the “Weight lost upon lowering the relative humidity (in words)” value in data set [1] is recorded as “All of this weight is lost”. The “Moisture balance: weight gain at 95% RH” value in data set [1] amounted to 1.1%. For the same molecule, the Solubility – broadly, the dissolved amount per volume that the medium holds – in data set [2] (setting [3]) is on record as 22 mg/mL (≈ 90.8 mM); in data set [2] (solvent 2,2,2-trifluoroethanol), 8 mg/mL (≈ 33 mM); in data set [2] (solvent MeOH:water (1:1)) it was 58 mg/mL (≈ 239 mM); in data set [2] (setting [4]) it was 72 mg/mL (≈ 297 mM); in data set [2] (solvent THF:water (1:1)), 127 mg/mL (≈ 524 mM); in data set [2] (solvent acetone), under 4 mg/mL. Also, the Solubility in data set [2] (solvent acetone:water (4:1)) was 51 mg/mL (≈ 211 mM); in data set [2] (solvent acetonitrile (ACN)) it was under 4 mg/mL; in data set [2] (solvent dichloromethane), under 3 mg/mL; in data set [2] (setting [5]), >3.6* mg/mL; in data set [2] (solvent ethyl acetate (EtOAc)), under 4 mg/mL; in data set [2] (solvent ethyl ether), under 3 mg/mL. For the same molecule, the Solubility was under 4 mg/mL in data set [2] (solvent hexane); under 3 mg/mL in data set [2] (solvent isopropanol IPA); 11 mg/mL (≈ 45.4 mM) in data set [2] (solvent methanol (MeOH)); 4 mg/mL (≈ 16.5 mM) in data set [2] (solvent tetrahydrofuran (THF)); under 4 mg/mL in data set [2] (solvent toluene); 32 mg/mL (≈ 132 mM) in data set [2] (solvent water).

For `Cc1cn([C@@H]2C[C@@H](O)[C@H](CO)O2)c(=O)[nH]c1=O` [L-dT, beta-L-2′-deoxythymidine], in data set [2] (in acetone, acetonitrile, ethyl acetate, diethyl ether, isopropanol, methylene chloride, and toluene), the “Solubility (in words)” value is recorded as “sparingly soluble”. The Solubility came to 22 mg/mL (≈ 90.8 mM) in data set [2] (setting [3]); 8 mg/mL (≈ 33 mM) in data set [2] (solvent 2,2,2-trifluoroethanol); 58 mg/mL (≈ 239 mM) in data set [2] (solvent MeOH:water (1:1)); 72 mg/mL (≈ 297 mM) in data set [2] (setting [4]); 127 mg/mL (≈ 524 mM) in data set [2] (solvent THF:water (1:1)); 51 mg/mL (≈ 211 mM) in data set [2] (solvent acetone:water (4:1)). The results for the Solubility in data set [2] (setting [5]), in data set [2] (solvent methanol (MeOH)) and in data set [2] (solvent water) were over 4 mg/mL, 11 mg/mL (≈ 45.4 mM) and 32 mg/mL (≈ 132 mM), respectively.

In the case of `Cc1cn([C@@H]2C[C@@H](O)[C@H](CO)O2)c(=O)[nH]c1=O` [Lot No. 1, beta-L-2′-deoxythymidine], in data set [1] (listed as 1), the “Moisture balance: loss from 95-5% RH” value was 1.1% loss from 95-5% RH, the “Moisture balance: weight loss at 5% RH” value is under 0.1% weight loss at 5% RH and the “Moisture balance: weight gain at 95% RH” value came out at 1.1% weight gain at 95% RH.

Consider `Cc1cn([C@@H]2C[C@@H](O)[C@H](CO)O2)c(=O)[nH]c1=O` [amorphous L-dT, beta-L-2′-deoxythymidine], for which, in data set [1], the “Moisture balance: weight loss at 5% RH” value is about 0.4% and the “Weight lost upon lowering the relative humidity (in words)” value was “loses almost all of this weight”. Besides, the “Moisture sorption: weight gain up to about 55% RH” value in data set [1] (sorption up to about 55% RH) is listed as about 2.3%.
